In ChEMBL document CHEMBL3044945, “Synthesis of 1,3,5-trisubstituted pyrazoline nucleus containing compounds and screening for antimicrobial activity” (2012):
Converted amounts (≈) assume the structure as drawn.

Legend:
Type in all cases: functional
Micrococcus luteus [1] = experiment: Antibacterial activity against Micrococcus luteus MTCC 1538 at 500 ug/ml after 48 hr by cup-plate method; conditions: MTCC 1538, 48 h, read-out: DIZ
Pseudomonas fluorescens [2] = experiment: Antibacterial activity against Pseudomonas fluorescens MTCC 2421 at 250 ug/ml after 48 hr by cup-plate method; conditions: MTCC 2421, 48 h, read-out: DIZ
Pseudomonas aeruginosa [3] = experiment: Antibacterial activity against Pseudomonas aeruginosa MTCC 424 at 500 ug/ml after 48 hr by cup-plate method; conditions: MTCC 424, 48 h, read-out: DIZ
Bacillus pumilus [4] = experiment: Antibacterial activity against Bacillus pumilus MTCC 1456 at 500 ug/ml after 48 hr by cup-plate method; conditions: MTCC 1456, 48 h, read-out: DIZ
Penicillium chrysogenum [5] = experiment: Antifungal activity against Penicillium chrysogenum MTCC 161 at 1000 ug/ml after 48 hr by cup-plate method; conditions: MTCC 161, 48 h, read-out: DIZ
Pseudomonas aeruginosa [6] = experiment: Antibacterial activity against Pseudomonas aeruginosa MTCC 424 at 750 ug/ml after 48 hr by cup-plate method; conditions: MTCC 424, 48 h, read-out: DIZ
Aspergillus niger [7] = experiment: Antifungal activity against Aspergillus niger MTCC 2546 at 100 ug/ml after 48 hr by cup-plate method; conditions: MTCC 2546, 48 h, read-out: DIZ
Pseudomonas fluorescens [8] = experiment: Antibacterial activity against Pseudomonas fluorescens MTCC 2421 at 750 ug/ml after 48 hr by cup-plate method; conditions: MTCC 2421, 48 h, read-out: DIZ
Micrococcus luteus [9] = experiment: Antibacterial activity against Micrococcus luteus MTCC 1538 at 1000 ug/ml after 48 hr by cup-plate method; conditions: MTCC 1538, 48 h, read-out: DIZ
Bacillus subtilis [10] = experiment: Antibacterial activity against Bacillus subtilis MTCC 441 after 24 to 48 hr by tube dilution method
Pseudomonas fluorescens [11] = experiment: Antibacterial activity against Pseudomonas fluorescens MTCC 2421 at 500 ug/ml after 48 hr by cup-plate method; conditions: MTCC 2421, 48 h, read-out: DIZ
Pseudomonas fluorescens [12] = experiment: Antibacterial activity against Pseudomonas fluorescens MTCC 2421 after 24 to 48 hr by tube dilution method
Bacillus pumilus [13] = experiment: Antibacterial activity against Bacillus pumilus MTCC 1456 at 100 ug/ml after 48 hr by cup-plate method; conditions: MTCC 1456, 48 h, read-out: DIZ
Bacillus subtilis [14] = experiment: Antibacterial activity against Bacillus subtilis MTCC 441 at 750 ug/ml after 48 hr by cup-plate method; conditions: MTCC 441, 48 h, read-out: DIZ
Staphylococcus aureus [15] = experiment: Antibacterial activity against Staphylococcus aureus MTCC 1430 at 750 ug/ml after 48 hr by cup-plate method; conditions: MTCC 1430, 48 h, read-out: DIZ
Aspergillus niger [16] = experiment: Antifungal activity against Aspergillus niger MTCC 2546 at 1250 ug/ml after 48 hr by cup-plate method; conditions: MTCC 2546, 48 h, read-out: DIZ
Pseudomonas aeruginosa [17] = experiment: Antibacterial activity against Pseudomonas aeruginosa MTCC 424 at 1250 ug/ml after 48 hr by cup-plate method; conditions: MTCC 424, 48 h, read-out: DIZ
Penicillium chrysogenum [18] = experiment: Antifungal activity against Penicillium chrysogenum MTCC 161 at 500 ug/ml after 48 hr by cup-plate method; conditions: MTCC 161, 48 h, read-out: DIZ
Staphylococcus aureus [19] = experiment: Antibacterial activity against Staphylococcus aureus MTCC 1430 after 24 to 48 hr by tube dilution method
Pseudomonas fluorescens [20] = experiment: Antibacterial activity against Pseudomonas fluorescens MTCC 2421 at 1250 ug/ml after 48 hr by cup-plate method; conditions: MTCC 2421, 48 h, read-out: DIZ
Bacillus pumilus [21] = experiment: Antibacterial activity against Bacillus pumilus MTCC 1456 at 1250 ug/ml after 48 hr by cup-plate method; conditions: MTCC 1456, 48 h, read-out: DIZ
Bacillus subtilis [22] = experiment: Antibacterial activity against Bacillus subtilis MTCC 441 at 100 ug/ml after 48 hr by cup-plate method; conditions: MTCC 441, 48 h, read-out: DIZ
Bacillus subtilis [23] = experiment: Antibacterial activity against Bacillus subtilis MTCC 441 at 500 ug/ml after 48 hr by cup-plate method; conditions: MTCC 441, 48 h, read-out: DIZ
Escherichia coli [24] = experiment: Antibacterial activity against Escherichia coli MTCC 1573 at 500 ug/ml after 48 hr by cup-plate method; conditions: MTCC 1573, 48 h, read-out: DIZ
Aspergillus niger [25] = experiment: Antifungal activity against Aspergillus niger MTCC 2546 at 1000 ug/ml after 48 hr by cup-plate method; conditions: MTCC 2546, 48 h, read-out: DIZ
Bacillus subtilis [26] = experiment: Antibacterial activity against Bacillus subtilis MTCC 441 at 250 ug/ml after 48 hr by cup-plate method; conditions: MTCC 441, 48 h, read-out: DIZ
Escherichia coli [27] = experiment: Antibacterial activity against Escherichia coli MTCC 1573 at 1250 ug/ml after 48 hr by cup-plate method; conditions: MTCC 1573, 48 h, read-out: DIZ
Staphylococcus aureus [28] = experiment: Antibacterial activity against Staphylococcus aureus MTCC 1430 at 1000 ug/ml after 48 hr by cup-plate method; conditions: MTCC 1430, 48 h, read-out: DIZ
Staphylococcus aureus [29] = experiment: Antibacterial activity against Staphylococcus aureus MTCC 1430 at 500 ug/ml after 48 hr by cup-plate method; conditions: MTCC 1430, 48 h, read-out: DIZ
Staphylococcus aureus [30] = experiment: Antibacterial activity against Staphylococcus aureus MTCC 1430 at 250 ug/ml after 48 hr by cup-plate method; conditions: MTCC 1430, 48 h, read-out: DIZ
Bacillus pumilus [31] = experiment: Antibacterial activity against Bacillus pumilus MTCC 1456 at 250 ug/ml after 48 hr by cup-plate method; conditions: MTCC 1456, 48 h, read-out: DIZ
Pseudomonas aeruginosa [32] = experiment: Antibacterial activity against Pseudomonas aeruginosa MTCC 424 after 24 to 48 hr by tube dilution method
Micrococcus luteus [33] = experiment: Antibacterial activity against Micrococcus luteus MTCC 1538 after 24 to 48 hr by tube dilution method
Escherichia coli [34] = experiment: Antibacterial activity against Escherichia coli MTCC 1573 after 24 to 48 hr by tube dilution method
Pseudomonas aeruginosa [35] = experiment: Antibacterial activity against Pseudomonas aeruginosa MTCC 424 at 250 ug/ml after 48 hr by cup-plate method; conditions: MTCC 424, 48 h, read-out: DIZ
Aspergillus niger [36] = experiment: Antifungal activity against Aspergillus niger MTCC 2546 at 500 ug/ml after 48 hr by cup-plate method; conditions: MTCC 2546, 48 h, read-out: DIZ
Escherichia coli [37] = experiment: Antibacterial activity against Escherichia coli MTCC 1573 at 250 ug/ml after 48 hr by cup-plate method; conditions: MTCC 1573, 48 h, read-out: DIZ
Bacillus pumilus [38] = experiment: Antibacterial activity against Bacillus pumilus MTCC 1456 at 750 ug/ml after 48 hr by cup-plate method; conditions: MTCC 1456, 48 h, read-out: DIZ
Micrococcus luteus [39] = experiment: Antibacterial activity against Micrococcus luteus MTCC 1538 at 1250 ug/ml after 48 hr by cup-plate method; conditions: MTCC 1538, 48 h, read-out: DIZ
Bacillus subtilis [40] = experiment: Antibacterial activity against Bacillus subtilis MTCC 441 at 1000 ug/ml after 48 hr by cup-plate method; conditions: MTCC 441, 48 h, read-out: DIZ
Micrococcus luteus [41] = experiment: Antibacterial activity against Micrococcus luteus MTCC 1538 at 750 ug/ml after 48 hr by cup-plate method; conditions: MTCC 1538, 48 h, read-out: DIZ
Penicillium chrysogenum [42] = experiment: Antifungal activity against Penicillium chrysogenum MTCC 161 at 250 ug/ml after 48 hr by cup-plate method; conditions: MTCC 161, 48 h, read-out: DIZ
Pseudomonas aeruginosa [43] = experiment: Antibacterial activity against Pseudomonas aeruginosa MTCC 424 at 1000 ug/ml after 48 hr by cup-plate method; conditions: MTCC 424, 48 h, read-out: DIZ
Pseudomonas fluorescens [44] = experiment: Antibacterial activity against Pseudomonas fluorescens MTCC 2421 at 1000 ug/ml after 48 hr by cup-plate method; conditions: MTCC 2421, 48 h, read-out: DIZ

- MIC (Bacillus subtilis [10]): 30 µg/mL (≈ 94.5 µM)
- MIC (Pseudomonas fluorescens [12]): 150 µg/mL (≈ 473 µM)
- MIC (Staphylococcus aureus [19]): 50 µg/mL (≈ 158 µM)
- MIC (Pseudomonas aeruginosa [32]): 30 µg/mL (≈ 94.5 µM)
- MIC (Micrococcus luteus [33]): 30 µg/mL (≈ 94.5 µM)
- MIC (Escherichia coli [34]): 200 µg/mL (≈ 630 µM)
SMILES: O=[N+]([O-])c1ccc(C2CC(c3cccc4ccccc34)=NN2)cc1 (centres undefined)
- zone of inhibition at 500 µg/mL (Micrococcus luteus [1]): 11 mm
- zone of inhibition at 250 µg/mL (Pseudomonas fluorescens [2]): 9 mm
- zone of inhibition at 500 µg/mL (Pseudomonas aeruginosa [3]): 11 mm
- zone of inhibition at 500 µg/mL (Bacillus pumilus [4]): 10 mm
- zone of inhibition at 1000 µg/mL (Penicillium chrysogenum [5]): 15 mm
- zone of inhibition at 750 µg/mL (Pseudomonas aeruginosa [6]): 12 mm
- zone of inhibition at 100 µg/mL (Aspergillus niger [7]): 8 mm
- zone of inhibition at 750 µg/mL (Pseudomonas fluorescens [8]): 14 mm
- zone of inhibition at 1000 µg/mL (Micrococcus luteus [9]): 13 mm
- zone of inhibition at 500 µg/mL (Pseudomonas fluorescens [11]): 11 mm
- zone of inhibition at 100 µg/mL (Bacillus pumilus [13]): 8 mm
- zone of inhibition at 750 µg/mL (Bacillus subtilis [14]): 15 mm
- zone of inhibition at 750 µg/mL (Staphylococcus aureus [15]): 13 mm
- zone of inhibition at 1250 µg/mL (Aspergillus niger [16]): 18 mm
- zone of inhibition at 1250 µg/mL (Pseudomonas aeruginosa [17]): 15 mm
- zone of inhibition at 500 µg/mL (Penicillium chrysogenum [18]): 10 mm
- zone of inhibition at 1250 µg/mL (Pseudomonas fluorescens [20]): 17 mm
- zone of inhibition at 1250 µg/mL (Bacillus pumilus [21]): 22 mm
- zone of inhibition at 100 µg/mL (Bacillus subtilis [22]): 10 mm
- zone of inhibition at 500 µg/mL (Bacillus subtilis [23]): 13 mm
- zone of inhibition at 500 µg/mL (Escherichia coli [24]): 11 mm
- zone of inhibition at 1000 µg/mL (Aspergillus niger [25]): 16 mm
- zone of inhibition at 250 µg/mL (Bacillus subtilis [26]): 12 mm
- zone of inhibition at 1250 µg/mL (Escherichia coli [27]): 18 mm
- zone of inhibition at 1000 µg/mL (Staphylococcus aureus [28]): 14 mm
- zone of inhibition at 500 µg/mL (Staphylococcus aureus [29]): 11 mm
- zone of inhibition at 250 µg/mL (Staphylococcus aureus [30]): 10 mm
- zone of inhibition at 250 µg/mL (Bacillus pumilus [31]): 9 mm
- zone of inhibition at 250 µg/mL (Pseudomonas aeruginosa [35]): 10 mm
- zone of inhibition at 500 µg/mL (Aspergillus niger [36]): 10 mm
- zone of inhibition at 250 µg/mL (Escherichia coli [37]): 10 mm
- zone of inhibition at 750 µg/mL (Bacillus pumilus [38]): 14 mm
- zone of inhibition at 1250 µg/mL (Micrococcus luteus [39]): 15 mm
- zone of inhibition at 1000 µg/mL (Bacillus subtilis [40]): 16 mm
- zone of inhibition at 750 µg/mL (Micrococcus luteus [41]): 12 mm
- zone of inhibition at 250 µg/mL (Penicillium chrysogenum [42]): 9 mm
- zone of inhibition at 1000 µg/mL (Pseudomonas aeruginosa [43]): 13 mm
- zone of inhibition at 1000 µg/mL (Pseudomonas fluorescens [44]): 15 mm
